Data on 20 molecules can be found in patent US6177437A, “Inhibitors of Herpes Simplex virus uracil-DNA glycosylase” (University of Massachusetts Medical Center, priority 1999, dated 2001).

Where two headings read alike, the source gives them in different places.

For series [1], the target named is T1, HSV1 uracil-DNA glycosylase (HSV1 UDG) (Human herpesvirus 1, UniProt P10186).
T1 construct: made in house
As to the kind of experiment: Inhibition of HSV1 uracil-DNA glycosylase, [3H]uracil release from [3H]dUMP-containing DNA. Type of series: biochemical. Conditions: for Activity against viral UDG: at 200 μM; for Potency against HSV1 UDG relative to parent compound: hexAU derivatives vs 4, octAU derivatives vs 5. As for the experimental part: (§1) Compounds 2-8 were screened against purified HSV1 and human (HeLa) uracil-DNA glycosylases which were isolated by conventional enzyme purification protocols^1. Assays for inhibition by the compounds were conducted as described in the literature^1 by measuring [^3 H]uracil release from [^3 H]dUMP-containing DNA, in the presence of varying concentrations of test compounds. Control assays contained the same concentration of diluent, dimethylsulfoxide. IC50 s (the concentration of compound that causes half-maximal inhibition of [^3 H]uracil release from [^3 H]dUMP-containing DNA) for each of the compounds were calculated.
(§2) a. Isolation and assay of uracil-DNA glycosylases. The viral and human (HeLa) uracil-DNA glycosylases are isolated with conventional enzyme purification protocols (Focher et al., 1993). Both long and short forms of the HSV1 enzyme have been cloned and expressed in E. Coli (Argnani et al., 1995), and have essentially identical enzymatic properties and inhibitor sensitivities. Assays for new inhibitors of viral and human UDG are done as described (Focher et al., 1993) by measuring [^3 H]uracil release from [^3 H]dUMP-DNA. Mechanism studies involve classical variable substrate assays to determine if inhibition is competitive with substrate or product.

In series [2] the target is T2, human (HeLa) uracil-DNA glycosylase (Homo sapiens, UniProt P13051).
T2 construct: The viral and human (HeLa) uracil-DNA glycosylases are isolated with conventional enzyme purification protocols; endogenous in cells; host or cells: HeLa
Particulars: cited from earlier work; for IC50: compounds 4 and 5, from Focher et al., 1993, read-out: IC50 Human-UDG.

Series [3] has as its target T1, HSV1 uracil-DNA glycosylase (HSV1 UDG). Particulars: cited from earlier work.
The nature of series [4]: Solubility observations (assay medium, water). Format: physicochemical.
For series [5], the target named is T2, human (HeLa) uracil-DNA glycosylase. The series can be described thus: Inhibition of human (HeLa) uracil-DNA glycosylase, [3H]uracil release from [3H]dUMP-containing DNA. Type of series: biochemical. Conditions: Table 3; read-out: IC50 Human-UDG. Here is the method: as §1, §2
Where [6] appears, read: Table 1, from literature (footnote a), read-out: IC50.
Where [7] appears, read: compounds 4 and 5, from Focher et al., 1993, read-out: IC50 HSV1-UDG.
[8] abbreviates: Table 2, read-out: IC50, experimental value.
[9] abbreviates: Table 3, read-out: IC50 HSV1-UDG.

T2 sequence (P13051 whole entry): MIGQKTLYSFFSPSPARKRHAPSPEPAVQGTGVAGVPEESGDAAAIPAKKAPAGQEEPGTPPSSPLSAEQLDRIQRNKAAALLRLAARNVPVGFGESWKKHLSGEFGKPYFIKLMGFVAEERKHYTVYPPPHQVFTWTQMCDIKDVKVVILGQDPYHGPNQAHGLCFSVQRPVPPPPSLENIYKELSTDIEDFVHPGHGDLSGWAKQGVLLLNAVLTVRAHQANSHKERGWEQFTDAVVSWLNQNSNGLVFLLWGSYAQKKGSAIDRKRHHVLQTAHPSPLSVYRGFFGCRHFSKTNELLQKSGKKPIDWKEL
T1 sequence (P10186 whole entry): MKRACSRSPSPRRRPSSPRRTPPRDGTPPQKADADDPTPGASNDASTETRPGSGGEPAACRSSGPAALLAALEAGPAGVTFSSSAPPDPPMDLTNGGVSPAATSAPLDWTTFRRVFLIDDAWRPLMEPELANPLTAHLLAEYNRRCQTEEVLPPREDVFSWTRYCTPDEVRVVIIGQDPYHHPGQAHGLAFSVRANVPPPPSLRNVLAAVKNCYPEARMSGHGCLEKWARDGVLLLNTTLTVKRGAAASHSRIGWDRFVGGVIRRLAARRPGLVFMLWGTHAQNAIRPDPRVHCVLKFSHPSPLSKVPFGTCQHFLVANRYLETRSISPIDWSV

Consider `CCCCCCc1ccc(Nc2cc(=O)n(CC)c(=O)[nH]2)cc1` [3-ethyl-6-(4-n-hexylanilino)uracil], for which the “Activity against viral UDG” value in series [1] is “inactive”. What is called IC50 is the concentration that gives 50% inhibition. Turning to `Nc1cc(=O)[nH]c(=O)[nH]1` [6-Aminouracil, reference compound], the IC50 in series [1] (text b184, read-out: IC50 HSV1 UDG) came out at 1000 µM. Also, in series [2] (reported (Caradonna et al, 1981)), the “Inhibition of human UDG” value was “inhibit weakly”. Turning to `CCCCCCc1ccc(Nc2[nH]c(=O)[nH]c(=O)c2C)cc1` [(4-n-hexylanilino)thymine, 6-(4-Hexylanilino)thymine], the “Activity against viral UDG” value in series [1] was “inactive”. For the molecule `CCc1ccc(Nc2cc(O)nc(O)n2)cc1` [Compound 2], the IC50 in series [3] (setting [6]) is 500 µM.

As to `CCCCCCc1ccc(Nc2cc(O)nc(O)n2)cc1` [Compound 4, 6-(4-n-Hexylanilino)uracil], the values for the IC50 in series [3] (setting [6]), in series [3] (setting [7]) and in series [2] were 30 µM, 30 µM and over 300 µM, respectively. In the case of `CCCCCCCCc1ccc(Nc2cc(=O)[nH]c(=O)[nH]2)cc1` [Compound 5, 6-(4-n-octylanilino)uracil], in series [1], the “Mode of inhibition of HSV1 UDG” value is reported as “competitive with DNA”. Also, the “Water solubility” value in series [4] was “poor water solubility”. In addition, the IC50 was 8 µM in series [3] (setting [6]), 8 µM in series [3] (setting [7]) and over 300 µM in series [2]. As for `CCCCCCCCCCc1ccc(Nc2cc(O)nc(O)n2)cc1` [Compound 6, 6-(4-Decylanilino)uracil], the IC50 was 35 µM in series [1] (setting [8]) and over 200 µM in series [5]. On to `CCCCCCOc1ccc(Nc2cc(O)nc(O)n2)cc1` [Compound 7, 6-(4-Hexyloxyanilino)uracil], for which the IC50 in series [1] (setting [8]) came to 30 µM. Still for that read-out and setting: with `CCCCCCCCOc1ccc(Nc2cc(O)nc(O)n2)cc1` [Compound 8, 6-(4-Octyloxyanilino)uracil] the figure was 25 µM. Take `CCCCCCCCc1ccc(Oc2cc(=O)[nH]c(=O)[nH]2)cc1` [Compound 9, 6-(4-Octylphenoxy)uracil]: the IC50 is 150 µM in series [1] (read-out: IC50, experimental value) and over 300 µM in series [5].

In the case of `CCCCCCc1ccc(Nc2cc(=O)[nH]c(=O)n2C)cc1` [Compound 16, 1-Methyl-6-(4-hexylanilino)uracil], the IC50 in series [5] is over 200 µM.

In the case of `CCCCCCc1ccc(Nc2cc(=O)[nH]c(=O)n2CC)cc1` [Compound 17, 1-Ethyl-6-(4-hexylanilino)uracil], in series [5], the IC50 is over 200 µM. In the case of `CCCCCCc1ccc(Nc2cc(=O)[nH]c(=O)n2CCC)cc1` [Compound 18, 1-Propyl-6-(4-hexylanilino)uracil], the IC50 in series [5] was over 200 µM. For `CCCCCCc1ccc(Nc2cc(=O)[nH]c(=O)n2CCOC)cc1` [Compound 19, 1-(2-Methoxyethyl)-6-(4-hexylanilino)uracil], in series [1] (setting [9]), the IC50 was over 100 µM. As for `CCCCCCc1ccc(Nc2cc(=O)[nH]c(=O)n2CCCOC)cc1` [Compound 20, 1-(3-Methoxypropyl)-6-(4-hexylanilino)uracil], in series [1] (setting [9]), the IC50 is over 100 µM. On to `CCCCCCc1ccc(Nc2cc(=O)[nH]c(=O)n2CCO)cc1` [Compound 21, 1-(2-Hydroxyethyl)-6-(4-hexylanilino)uracil], for which, in series [1] (setting [9]), the IC50 amounted to 20 µM. The “Potency against HSV1 UDG relative to parent compound” value in series [1] is “equipotent with 4”. On to `CCCCCCc1ccc(Nc2cc(=O)[nH]c(=O)n2CCCO)cc1` [Compound 22, 1-(3-Hydroxypropyl)-6-(4-hexylanilino)uracil], for which the “Potency against HSV1 UDG, fold weaker than 4” value in series [1] is 3 fold. For the same molecule, the IC50 in series [1] (read-out: IC50 HSV1-UDG) was determined as 90 µM.

For the molecule `CCCCCCCCc1ccc(Nc2cc(=O)[nH]c(=O)n2CCOC)cc1` [Compound 24, 1-(2-Methoxyethyl)-6-(4-octylanilino)uracil], in series [1] (setting [9]), the IC50 was found to be 15 µM. Besides, in series [1], the “Potency against HSV1 UDG relative to parent compound” value was “nearly as potent”.

For the molecule `CCCCCCCCc1ccc(Nc2cc(=O)[nH]c(=O)n2CCO)cc1` [Compound 25, 1-(2-Hydroxyethyl)-6-(4-octylanilino)uracil], in series [1] (setting [9]), the IC50 is 10 µM. Also, the “Potency against HSV1 UDG relative to parent compound” value in series [1] is recorded as “as a potent an inhibitor as 5”. `O=c1cc[nH]c(=O)[nH]1` [uracil]: in series [2] (reported (Griffiths 1995)), the “Mode of inhibition of human UDG” value is given as “non-competitive”.
